Experimental data reported in patent publication US10017509B2, “Macrocylic pyrimidine derivatives” (Janssen Pharmaceutica NV, priority 2014, dated 2018).

Legend:
EF2K [1] = biological target: T1, EF2K (Homo sapiens, UniProt O00418); test: Biochemical EF2K lysate-based kinase assay (AlphaLISA p-eEF2 Thr56); settings: pIC50 = -log IC50 (M), read-out: eEF2K_C_alphalisa pIC50 (converted)
T1 construct: host or cells: LN-229 cell lysate
T1 sequence (O00418 1-725): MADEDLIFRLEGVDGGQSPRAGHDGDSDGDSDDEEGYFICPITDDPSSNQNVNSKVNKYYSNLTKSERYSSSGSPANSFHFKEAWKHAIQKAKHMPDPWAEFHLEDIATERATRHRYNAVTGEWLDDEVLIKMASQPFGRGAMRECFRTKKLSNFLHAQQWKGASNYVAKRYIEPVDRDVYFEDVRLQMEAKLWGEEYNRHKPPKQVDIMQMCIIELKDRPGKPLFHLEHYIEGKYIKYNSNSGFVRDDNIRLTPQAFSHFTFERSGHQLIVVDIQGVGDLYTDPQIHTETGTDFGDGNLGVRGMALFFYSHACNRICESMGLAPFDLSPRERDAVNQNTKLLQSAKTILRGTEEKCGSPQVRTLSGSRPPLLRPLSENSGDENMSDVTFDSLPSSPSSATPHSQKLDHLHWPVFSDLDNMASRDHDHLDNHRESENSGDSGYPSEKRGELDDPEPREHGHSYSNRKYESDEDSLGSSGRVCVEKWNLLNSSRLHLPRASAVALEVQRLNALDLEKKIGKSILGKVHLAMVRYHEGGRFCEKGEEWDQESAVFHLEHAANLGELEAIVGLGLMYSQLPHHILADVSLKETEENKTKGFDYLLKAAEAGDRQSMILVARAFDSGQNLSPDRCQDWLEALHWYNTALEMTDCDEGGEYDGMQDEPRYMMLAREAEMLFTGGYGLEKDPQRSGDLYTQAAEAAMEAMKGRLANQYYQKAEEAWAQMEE
Method in brief: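 LN-229 glioblastoma lysate supplied both EF2K and eEF2 substrate; compound incubated 15 min at room temperature in pH 6.6 buffer with 10 mM Mg2+ and 10 mM ATP. EDTA-stopped; phospho-eEF2 Thr56 quantified by AlphaLISA sandwich, final read after overnight. Values as pIC50.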

EF2K [2] = biological target: T1, EF2K; test: EF2K cell-based assay (P-EF2 AlphaLISA, 2-deoxyglucose stimulated MCF10A cells); settings: 2.5 mM 2-deoxyglucose stimulated, P-EF2 Thr56, pIC50 = -log IC50 (M), read-out: eEF2K_C_PThr56 pIC50 (converted)
Method in brief: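 MCF10A cells, after 24 h culture, treated 1 h with compound then stimulated 4 h with 2.5 mM 2-deoxyglucose to activate AMPK. Lysates in M-PER with protease/phosphatase inhibitors assayed for P-EF2 by AlphaLISA; pIC50 = −log IC50 (M).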

[3] = biological target: Vps34 (PIK3C3 lipid kinase) (Homo sapiens, UniProt Q8NEB9); test: Biochemical Vps34 lipid kinase assay (ADP-Glo); settings: for remaining activity at 1 µM: 1 h, read-out: VPS34_1microM_% of cntrl; for IC50: serial half-log dilution 10 μM to 0.3 nM, pIC50 = -log IC50 (M)
Method in brief: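 ADP-Glo luminescence assay of PIK3C3 (7.6 nM) with 50 µM substrate and 20 µM ATP (apparent Km) in HEPES pH 7.5, 100 mM NaCl, 3 mM MnCl2, CHAPS, DTT; 60 min, 30 °C. Single dose 1 µM (residual activity vs DMSO) or half-log series 10 µM-0.3 nM giving pIC50.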

[4] = single dose 1 μM compound, residual activity compared to control (DMSO)

Sequence of Vps34 (PIK3C3 lipid kinase) (Q8NEB9 whole entry, species assumed): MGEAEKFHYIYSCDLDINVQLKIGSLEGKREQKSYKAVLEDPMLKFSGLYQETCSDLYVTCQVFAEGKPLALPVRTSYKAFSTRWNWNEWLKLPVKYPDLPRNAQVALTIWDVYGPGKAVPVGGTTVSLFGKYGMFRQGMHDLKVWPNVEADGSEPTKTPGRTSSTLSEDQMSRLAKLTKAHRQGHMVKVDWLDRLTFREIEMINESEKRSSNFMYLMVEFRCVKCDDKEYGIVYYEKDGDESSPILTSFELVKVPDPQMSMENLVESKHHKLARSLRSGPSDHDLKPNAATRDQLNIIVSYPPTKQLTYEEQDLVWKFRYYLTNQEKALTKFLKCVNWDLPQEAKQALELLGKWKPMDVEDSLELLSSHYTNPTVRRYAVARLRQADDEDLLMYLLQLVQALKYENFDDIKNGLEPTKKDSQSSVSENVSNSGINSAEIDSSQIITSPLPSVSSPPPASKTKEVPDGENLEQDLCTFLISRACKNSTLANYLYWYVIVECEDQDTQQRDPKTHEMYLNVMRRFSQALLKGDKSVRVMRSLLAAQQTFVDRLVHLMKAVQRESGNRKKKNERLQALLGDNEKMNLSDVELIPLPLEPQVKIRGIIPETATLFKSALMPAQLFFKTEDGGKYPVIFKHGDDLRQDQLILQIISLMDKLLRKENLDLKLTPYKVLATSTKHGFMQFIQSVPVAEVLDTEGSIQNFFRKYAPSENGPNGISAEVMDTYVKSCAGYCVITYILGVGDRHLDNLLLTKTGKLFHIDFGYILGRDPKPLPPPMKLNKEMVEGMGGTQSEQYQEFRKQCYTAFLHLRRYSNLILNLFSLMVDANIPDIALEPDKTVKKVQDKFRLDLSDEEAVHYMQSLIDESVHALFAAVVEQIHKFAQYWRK

| Structure (SMILES) | IC50 (EF2K [1]) [M] | IC50 (EF2K [2]) [M] | remaining activity at 1 µM [3, 4] [%] | IC50 [3] [M] | VPS34_1microM_% of cntrl [3, 4] |
| --- | --- | --- | --- | --- | --- |
| Cc1c2cccc1Nc1nccc(n1)-c1ccc(nc1)NCCCNC(=O)CN1CCN(CC1)C2 [Compound 19] | ~1.58e-06 | > 3.02e-05 | 87.1 |  |  |
| O=C1CN2CCN(CC2)Cc2cccc(c2)Nc2nccc(n2)-c2ccc(nc2)NC(=O)CCN1 [Compound 85] | 2.69e-06 | > 3.02e-05 | 47.6 |  |  |
| O=C1CN2CCN(CC2)Cc2cc(ccc2Cl)Nc2nccc(n2)-c2ccc(nc2)NCCCN1 [Compound 120] | 1.74e-07 | 1.45e-05 | 7.29 | 1.2e-07 |  |
| COCCOCC1CN2CCN1Cc1cccc(c1)Nc1nccc(n1)-c1ccc(nc1)N(C)CCCN(C)C(=O)C2 (centres unmarked) [Compound 101] | 1.7e-07 | 2.04e-05 | 29.4 | 7.76e-07 |  |
| CN1CCN(C)c2ccc(cn2)-c2ccnc(n2)Nc2cccc(c2)CN2CCNC(CC1=O)C2 (centres unmarked) [Compound 72] | 3.8e-06 | > 3.02e-05 | 11.5 | 3.02e-07 |  |
| CN1CCCN(C)c2ccc(cn2)-c2ccnc(n2)Nc2cccc(c2)CN2CCN(C)C(C2)C1=O (centres unmarked) [Compound 75] | > 3.02e-05 | > 3.02e-05 | 22.9 | 1.38e-06 |  |
| N#CCCN1CCCNC(=O)CN2CCN(Cc3cccc(c3)Nc3nccc(n3)-c3ccc1nc3)C(CO)C2 (centres unmarked) [Compound 54] | 9.12e-07 | > 3.02e-05 | 4.02 | 8.51e-08 |  |
| CN1CCCN(C)c2ccc(cn2)-c2ccnc(n2)Nc2cccc(c2)C(=O)N2CCN(CC2)CC1=O [Compound 28] | ~5.5e-08 | > 3.02e-05 | 45.6 |  |  |
| CC1CN2CCN1Cc1cccc(c1)Nc1nccc(n1)-c1ccc(nc1)NCCCNC(=O)C2 (single isomer, unassigned) [Compound 62] | 7.76e-08 | 2.04e-06 |  |  | 166.89 % of cntrl |
| O=C1CN2CCN(CC2)C(=O)c2cccc(c2)Nc2nccc(n2)-c2ccc(nc2)NCCCN1 [Compound 117] | 3.47e-07 | > 3.02e-05 | 11.7 | 2e-07 |  |
| CN(C)C(=O)c1ccc2cc1CN1CCN(CC1)CC(=O)N(C)CCCN(C)c1ccc(cn1)-c1ccnc(n1)N2 [Compound 17] | 1.1e-06 | > 3.02e-05 | 39.5 |  |  |
| COCC1CN2CCN1Cc1cccc(c1)Nc1nccc(n1)-c1ccc(nc1)N(C)CCCN(C)C(=O)C2 (centres unmarked) [Compound 97] | 1.51e-07 | 2.24e-05 | 24.6 | 5.37e-07 |  |
| O=C1CN2CCN(CC2)Cc2ccc(F)c(c2)Nc2nccc(n2)-c2ccc(nc2)NCCCN1 [Compound 3] | 1.66e-06 | > 3.02e-05 | 4.43 | 6.76e-08 |  |
